Laboratory results reported in patent publication US8299065B2, “Antibacterial condensed thiazoles” (Biota Europe Ltd., priority 2007, dated 2012).
Converted amounts (≈) assume the structure as drawn.

tested on: Enterococcus faecalis ATCC 29212; experiment: MIC testing against Enterococcus faecalis ATCC 29212; format: cell-based; conditions: ATCC29212, read-out: MICs against Enterococcus faecalis, Activity
Procedure: Minimum Inhibitory Concentration (MIC) Testing Compounds of this invention were tested for antimicrobial activity by susceptibility testing in liquid or on solid media. MICs for compounds against each strain were determined by the broth microdilution or agar dilution method according to the guidelines of the Clinical Laboratories and Standards Institute, formerly the National Committee for Clinical Laboratory Standards (Clinical Laboratories and Standards Institute. Methods for Dilution Antimicrobial Susceptibility Tests for Bacteria That Grow Aerobically; Approved Standard—Seventh Edition. Document M7-A7. CLSI, Wayne, Pa., 2006; Clinical Laboratories and Standards Institute. Methods for Antimicrobial Susceptibility Testing of Anaerobic Bacteria; Approved Standard—Sixth Edition. Document M11-A6. CLSI, Wayne, Pa., 2004).

CCNC(=O)Nc1nc2cc(-c3ccc4nncn4c3)ccc2s1 [Example 5, 1-(5-([1,2,4]triazolo[4,3-a]pyridin-6-yl)benzo[d]thiazol-2-yl)-3-ethylurea] and CCNC(=O)Nc1nc2cc(-c3ccc4nnnn4c3)ccc2s1 [Example 7, 1-ethyl-3-(5-(tetrazolo[1,5-a]pyridin-6-yl)benzo[d]thiazol-2-yl)urea] fall in the same range of MIC: 2 to 16 µg/mL (≈ 5.91 to 47.3 µM) for the first, 2 to 16 µg/mL (≈ 5.89 to 47.1 µM) for the second.

Compared with CCNC(=O)Nc1nc2cc(-c3ccn(CCN(C)C)c(=O)c3)c(F)cc2s1 [Example 63, 1-(5-(1-(2-(dimethylamino)ethyl)-2-oxo-1,2-dihydropyridin-4-yl)-6-fluorobenzo[d]thiazol-2-yl)-3-ethylurea], CCNC(=O)Nc1nc2cc(-c3ccn(CCN4CCOCC4)c(=O)c3)c(F)cc2s1 [Example 62, 1-ethyl-3-(6-fluoro-5-(1-(2-morpholinoethyl)-2-oxo-1,2-dihydropyridin-4-yl)benzo[d]thiazol-2-yl)urea] is lower in MIC: 2 to 16 µg/mL (≈ 4.96 to 39.7 µM) for the first, 0.25 to 1 µg/mL (≈ 0.561 to 2.24 µM) for the second.

CCNC(=O)Nc1nc2cc(-c3cc(C)oc(=O)c3)cnc2s1 [Example 77, 1-ethyl-3-(6-(6-methyl-2-oxo-2H-pyran-4-yl)thiazolo[5,4-b]pyridin-2-yl)urea] and CCNC(=O)Nc1nc2cc(-c3cccnc3)cnc2s1 [Example 75, 1-ethyl-3-(6-(pyridin-3-yl)thiazolo[5,4-b]pyridin-2-yl)urea] fall in the same range of MIC: 2 to 16 µg/mL (≈ 6.05 to 48.4 µM) for the first, 2 to 16 µg/mL (≈ 6.68 to 53.4 µM) for the second.

CCNC(=O)Nc1nc2cc(-c3cnc(O)s3)ccc2s1 [Example 23, 1-ethyl-3-(5-(2-hydroxythiazol-5-yl)benzo[d]thiazol-2-yl)urea] and CCNC(=O)Nc1nc2cc(-c3cnn(C)c3)ccc2s1 [Example 18, 1-ethyl-3-(5-(1-methyl-1H-pyrazol-4-yl)benzo[d]thiazol-2-yl)urea] fall in the same range of MIC: 2 to 16 µg/mL (≈ 6.24 to 49.9 µM) for the first, 2 to 16 µg/mL (≈ 6.64 to 53.1 µM) for the second.

First: CCNC(=O)Nc1nc2cc(-c3cnc(N4CCN(CCO)CC4)nc3)c(F)cc2s1 [Example 41, 1-ethyl-3-(6-fluoro-5-(2-(4-(2-hydroxyethyl)piperazin-1-yl)pyrimidin-5-yl)benzo[d]thiazol-2-yl)urea]
Second: CCNC(=O)Nc1nc2cc(-c3cnc(N4CCCC(C(=O)OC)C4)nc3)c(F)cc2s1 (stereo not shown) [Example 45, methyl 1-(5-(2-(3-ethylureido)-6-fluorobenzo[d]thiazol-5-yl)pyrimidin-2-yl)piperidine-3-carboxylate]
The MIC of the first is higher: 2 to 16 µg/mL (≈ 4.49 to 35.9 µM) for the first, 0.25 to 1 µg/mL (≈ 0.545 to 2.18 µM) for the second.

First: CCNC(=O)Nc1nc2cc(-c3cnc(S(C)(=O)=O)nc3)c(F)cc2s1 [Example 70, 1-ethyl-3-(6-fluoro-5-(2-(methylsulfonyl)pyrimidin-5-yl)benzo[d]thiazol-2-yl)urea]
Second: CCNC(=O)Nc1nc2cc(-c3cncc(O)c3)c(F)cc2s1 [Example 59, 1-ethyl-3-(6-fluoro-5-(5-hydroxypyridin-3-yl)benzo[d]thiazol-2-yl)urea]
The MIC of the first is higher: 2 to 16 µg/mL (≈ 5.06 to 40.5 µM) for the first, 0.25 to 1 µg/mL (≈ 0.752 to 3.01 µM) for the second.

CCNC(=O)Nc1nc2cc(-c3ccc4c(=O)c(C(=O)OCC)cn(C)c4c3)ccc2s1 [Example 37, ethyl 7-(2-(3-ethylureido)benzo[d]thiazol-5-yl)-1-methyl-4-oxo-1,4-dihydroquinoline-3-carboxylate] and CCNC(=O)Nc1nc2cc(-c3cc(C)n(CCO)c(=O)c3)ccc2s1 [Example 32, 1-ethyl-3-(5-(1-(2-hydroxyethyl)-6-methyl-2-oxo-1,2-dihydropyridin-4-yl)benzo[d]thiazol-2-yl)urea] fall in the same range of MIC: 2 to 16 µg/mL (≈ 4.44 to 35.5 µM) for the first, 2 to 16 µg/mL (≈ 5.37 to 43 µM) for the second.

First: CCNC(=O)Nc1nc2cc(-c3ccc(CN4CCOCC4)nc3)c(F)cc2s1 [Example 66, 1-ethyl-3-(6-fluoro-5-(6-(morpholinomethyl)pyridin-3-yl)benzo[d]thiazol-2-yl)urea]
Second: CCNC(=O)Nc1nc2cc(-c3ccc(CO)nc3)c(F)cc2s1 [Example 65, 1-ethyl-3-(6-fluoro-5-(6-(hydroxymethyl)pyridin-3-yl)benzo[d]thiazol-2-yl)urea]
The MIC of the first is higher: 2 to 16 µg/mL (≈ 4.81 to 38.5 µM) for the first, 0.25 to 1 µg/mL (≈ 0.722 to 2.89 µM) for the second.

First: CCNC(=O)Nc1nc2cc(-c3ccc(NC(C)=O)nc3)cnc2s1 [Example 76, N-(5-(2-(3-ethylureido)thiazolo[5,4-b]pyridin-6-yl)pyridin-2-yl)acetamide]
Second: CCNC(=O)Nc1nc2cc(-c3ccc(-c4nnn(C)n4)nc3)ccc2s1 [Example 30, 1-ethyl-3-(5-(6-(2-methyl-2H-tetrazol-5-yl)pyridin-3-yl)benzo[d]thiazol-2-yl)urea]
The MIC of the first is higher: 2 to 16 µg/mL (≈ 5.61 to 44.9 µM) for the first, 0.25 to 1 µg/mL (≈ 0.657 to 2.63 µM) for the second.

First: CCNC(=O)Nc1nc2cc(-c3ccc(N4CCOCC4)nc3)ccc2s1 [Example 27, 1-ethyl-3-(5-(6-morpholinopyridin-3-yl)benzo[d]thiazol-2-yl)urea]
Second: CCNC(=O)Nc1nc2cc(-c3ccc4ncnn4c3)ccc2s1 [Example 25, 1-(5-([1,2,4]triazolo[1,5-a]pyridin-6-yl)benzo[d]thiazol-2-yl)-3-ethylurea]
The MIC of the first is higher: 2 to 16 µg/mL (≈ 5.22 to 41.7 µM) for the first, 0.25 to 1 µg/mL (≈ 0.739 to 2.96 µM) for the second.

CCNC(=O)Nc1nc2cc(-c3cnc4c(c3)OCCN4)ccc2s1 [Example 8, 1-(5-(3,4-dihydro-2H-pyrido[3,2-b][1,4]oxazin-7-yl)benzo[d]thiazol-2-yl)-3-ethylurea] and CCNC(=O)Nc1nc2cc(-c3cnc4ccccn34)ccc2s1 [Example 24, 1-ethyl-3-(5-(imidazo[1,2-a]pyridin-3-yl)benzo[d]thiazol-2-yl)urea] fall in the same range of MIC: 2 to 16 µg/mL (≈ 5.63 to 45 µM) for the first, 2 to 16 µg/mL (≈ 5.93 to 47.4 µM) for the second.

Compared with CCNC(=O)Nc1nc2cc(-c3ccn(C4CCNC4)c(=O)c3)c(F)cc2s1 (stereo not shown) [Example 67, 1-ethyl-3-(6-fluoro-5-(2-oxo-1-(pyrrolidin-3-yl)-1,2-dihydropyridin-4-yl)benzo[d]thiazol-2-yl)urea], CCNC(=O)Nc1nc2cc(-c3ccn(C)c(=O)c3)c(C)cc2s1 [Example 74, 1-ethyl-3-(6-methyl-5-(1-methyl-2-oxo-1,2-dihydropyridin-4-yl)benzo[d]thiazol-2-yl)urea] is lower in MIC: 2 to 16 µg/mL (≈ 4.98 to 39.9 µM) for the first, 0.25 to 1 µg/mL (≈ 0.73 to 2.92 µM) for the second.

CCNC(=O)Nc1nc2cc(-c3c[nH]c4ncccc34)c(F)cc2s1 [Example 48, 1-ethyl-3-(6-fluoro-5-(1H-pyrrolo[2,3-b]pyridin-3-yl)benzo[d]thiazol-2-yl)urea] and CCNC(=O)Nc1nc2cc(-c3ccc(C(N)=NO)nc3)c(F)cc2s1 [Example 60, 5-(2-(3-ethylureido)-6-fluorobenzo[d]thiazol-5-yl)-N′-hydroxypicolinimidamide] fall in the same range of MIC: 0.25 to 1 µg/mL (≈ 0.703 to 2.81 µM) for the first, 0.25 to 1 µg/mL (≈ 0.668 to 2.67 µM) for the second.

CCNC(=O)Nc1nc2cc(-c3cc(C)n(CC4CCCCN4C)c(=O)c3)c(F)cc2s1 (stereo not shown) [Example 51, 1-ethyl-3-(6-fluoro-5-(6-methyl-1-((1-methylpiperidin-2-yl)methyl)-2-oxo-1,2-dihydropyridin-4-yl)benzo[d]thiazol-2-yl)urea] and CCNC(=O)Nc1nc2cc(-c3cncs3)c(F)cc2s1 [Example 69, 1-ethyl-3-(6-fluoro-5-(thiazol-5-yl)benzo[d]thiazol-2-yl)urea] fall in the same range of MIC: 2 to 16 µg/mL (≈ 4.37 to 35 µM) for the first, 2 to 16 µg/mL (≈ 6.2 to 49.6 µM) for the second.

First: CCNC(=O)Nc1nc2cc(-c3cc(C)n(C(C)c4ccccn4)c(=O)c3)ccc2s1 (stereo not shown) [Example 36, 1-ethyl-3-(5-(6-methyl-2-oxo-1-(1-(pyridin-2-yl)ethyl)-1,2-dihydropyridin-4-yl)benzo[d]thiazol-2-yl)urea]
Second: CCNC(=O)Nc1nc2cc(-c3ccc(-c4noc(C)n4)nc3)c(F)cc2s1 [Example 55, 1-ethyl-3-(6-fluoro-5-(6-(5-methyl-1,2,4-oxadiazol-3-yl)pyridin-3-yl)benzo[d]thiazol-2-yl)urea]
The MIC of the first is higher: 2 to 16 µg/mL (≈ 4.61 to 36.9 µM) for the first, 0.25 to 1 µg/mL (≈ 0.627 to 2.51 µM) for the second.

CCNC(=O)Nc1nc2cc(-c3cccnc3)c(OC)cc2s1 [Example 71, 1-ethyl-3-(6-methoxy-5-(pyridin-3-yl)benzo[d]thiazol-2-yl)urea] was tested, and the MIC was 0.25 to 1 µg/mL (≈ 0.761 to 3.05 µM).
